Common to all, as to assay type: biochemical
The target of test [1] is T1, KRAS G12V (Homo sapiens, UniProt P01116, G12V).
T1 construct: made in house; host or cells: E. coli, e.g. BL21 (DE3)
The test is described as follows: HTRF KRAS-SOS1 interaction assay, KRAS G12V. The conditions noted are these: binned ≤2 μM / >2 μM, read-out: Inhibition of KRAS G12V (IC50). The method, boiled down: (§1)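 Read-out: HTRF ratio 665/620 nm after ≥10 min incubation of compound with GST-KRAS/anti-GST-Eu and His-hSOS1/anti-6His-XL665. Duplicate dose series, 10 μM down to 0.01 μM. Buffer HEPES pH 7.4, NaCl, DTT, BSA, Igepal.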

In test [2] the target is T2, KRAS WT (Homo sapiens, UniProt P01116).
T2 construct: made in house; host or cells: E. coli, e.g. BL21 (DE3)
Nature of the test: HTRF KRAS-SOS1 interaction assay, wildtype KRAS. The conditions noted are these: binned ≤2 μM / >2 μM, read-out: Inhibition of KRAS WT (IC50). An outline of the steps:
as §1
Background: In TR-FRET formats the signal depends on donor and acceptor labels being close together.

The target of test [3] is T3, KRAS G12D (Homo sapiens, UniProt P01116, G12D).
T3 construct: made in house; host or cells: E. coli, e.g. BL21 (DE3)
Nature of the test: HTRF KRAS-SOS1 interaction assay, KRAS G12D. The conditions noted are these: binned ≤2 μM / >2 μM, read-out: Inhibition of KRAS G12D (IC50). The method, boiled down:
as §1

Test [4] addresses T4, KRAS G12S (Homo sapiens, UniProt P01116, G12S).
T4 construct: made in house; host or cells: E. coli, e.g. BL21 (DE3)
The test is described as follows: HTRF KRAS-SOS1 interaction assay, KRAS G12S. The conditions noted are these: binned ≤2 μM / >2 μM, read-out: Inhibition of KRAS G12S (IC50). The method, boiled down:
as §1

Where only a bound is given, the exact number is not on record here.

In general, IC50 refers to the concentration that inhibits the measured activity by half.

T2 sequence (P01116 1-188 isoform P01116-2): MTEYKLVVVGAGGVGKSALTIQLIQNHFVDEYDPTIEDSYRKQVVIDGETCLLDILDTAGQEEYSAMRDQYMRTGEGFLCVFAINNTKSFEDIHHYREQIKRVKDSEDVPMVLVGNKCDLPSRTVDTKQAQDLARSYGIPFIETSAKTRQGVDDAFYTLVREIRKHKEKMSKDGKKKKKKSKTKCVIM
T3 sequence (P01116 1-188 isoform P01116-2 G12D): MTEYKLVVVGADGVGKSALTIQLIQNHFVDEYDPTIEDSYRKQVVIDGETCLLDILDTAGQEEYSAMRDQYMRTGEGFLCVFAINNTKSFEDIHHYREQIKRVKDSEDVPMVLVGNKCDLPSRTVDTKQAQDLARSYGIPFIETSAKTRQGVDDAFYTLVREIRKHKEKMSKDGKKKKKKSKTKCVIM
T1 sequence (P01116 1-188 isoform P01116-2 G12V): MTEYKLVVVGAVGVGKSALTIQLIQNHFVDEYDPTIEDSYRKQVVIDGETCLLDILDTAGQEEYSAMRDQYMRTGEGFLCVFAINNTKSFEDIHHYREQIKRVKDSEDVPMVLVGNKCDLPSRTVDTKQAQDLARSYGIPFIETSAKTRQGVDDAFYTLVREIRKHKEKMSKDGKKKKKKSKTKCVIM
T4 sequence (P01116 1-188 isoform P01116-2 G12S): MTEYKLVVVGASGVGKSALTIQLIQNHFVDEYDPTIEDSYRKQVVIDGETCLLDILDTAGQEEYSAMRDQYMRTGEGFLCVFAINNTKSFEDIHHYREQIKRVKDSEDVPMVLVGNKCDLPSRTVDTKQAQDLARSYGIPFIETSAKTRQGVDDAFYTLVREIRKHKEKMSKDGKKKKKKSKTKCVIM

Regarding `CO[C@H]1CCN(C)[C@@H]1[C@H](C)Oc1nc2c3c(c(C(F)(F)F)c(-c4ccc(F)c5sc(N)c(C#N)c45)c(F)c3n1)OCCN2[C@H](C)c1cccnc1N` [Compound 665, 2-amino-4-(4-((R)-1-(2-aminopyridin-3-yl)ethyl)-10-fluoro-2-((S)-1-((2R,3S)-3-methoxy-1-methylpyrrolidin-2-yl)ethoxy)-8-(trifluoromethyl)-5,6-dihydro-4H-[1,4]oxazepino[5,6,7-de]quinazolin-9-yl)-7-fluorobenzo[b]thiophene-3-carbonitrile], the IC50 in test [1], in test [2], in test [3] and in test [4] was not above 2000 nM throughout.
Take `C#CCC(c1cccnc1N)N1CCOc2c(Cl)c(-c3ccc(F)c4sc(N)c(C#N)c34)c(F)c3nc(OC[C@@]45CCCN4C[C@H](F)C5)nc1c23` (single isomer, unassigned) [Compound 764]: the IC50 in test [1], in test [2], in test [3] and in test [4] was not above 2000 nM in each case.
As to `N#Cc1c(N)sc2c(F)ccc(-c3c(C(F)(F)F)c4c5c(nc(OC[C@@]67CCCN6C[C@H](F)C7)nc5c3F)N([C@H](CCC(F)(F)F)c3cccnc3N)CCO4)c12` (atropisomer, axis not shown; (aS)) [Compound 614, 2-amino-4-((S)-4-((R)-1-(2-aminopyridin-3-yl)-4,4,4-trifluorobutyl)-10-fluoro-2-(((2R,7aS)-2-fluorotetrahydro-1H-pyrrolizin-7a (5H)-yl)methoxy)-8-(trifluoromethyl)-5,6-dihydro-4H-[1,4]oxazepino[5,6,7-de]quinazolin-9-yl)-7-fluorobenzo[b]thiophene-3-carbonitrile], the IC50 in test [1], in test [2], in test [3] and in test [4] was not above 2000 nM each time.
As to `C[C@H](Oc1nc2c3c(c(Cl)c(-c4ccc(F)c5sc(N)c(C#N)c45)c(F)c3n1)OCCN2[C@H](C)c1cccnc1N)[C@@H]1CCCN1C` (mixture of isomers) [Compound 803, 2-amino-4-(4-((R)-1-(2-aminopyridin-3-yl)ethyl)-8-chloro-10-fluoro-2-((S)-1-((S)-1-methylpyrrolidin-2-yl)ethoxy)-5,6-dihydro-4H-[1,4]oxazepino[5,6,7-de]quinazolin-9-yl)-7-fluorobenzo[b]thiophene-3-carbonitrile], the IC50 in test [1], in test [2], in test [3] and in test [4] was not above 2000 nM in each case.
Turning to `C[C@H](c1cc(F)cnc1N)N1CCOc2c(C(F)(F)F)c(-c3ccc(F)c4sc(N)c(C#N)c34)c(F)c3nc(OCC4(CN5CCC6(CC5)CC6(F)F)CC4)nc1c23` [Compound 841, 2-amino-4-(4-((R)-1-(2-amino-5-fluoropyridin-3-yl)ethyl)-2-((1-((1,1-difluoro-6-azaspiro[2.5]octan-6-yl)methyl)cyclopropyl)methoxy)-10-fluoro-8-(trifluoromethyl)-5,6-dihydro-4H-[1,4]oxazepino[5,6,7-de]quinazolin-9-yl)-7-fluorobenzo[b]thiophene-3-carbonitrile], the IC50 in test [1], in test [2], in test [3] and in test [4] was not above 2000 nM each time.
For `N#Cc1c(N)sc2c(F)ccc(-c3c(C(F)(F)F)c4c5c(nc(OC[C@@]67CCCN6C[C@H](F)C7)nc5c3F)N([C@H](CC3CCOC3)c3cccnc3N)CCO4)c12` (single isomer, unassigned) [Compound 692], the IC50 in test [1], in test [2], in test [3] and in test [4] was not above 2000 nM in each case.
Turning to `C[C@H](c1cncnc1N)N1CCOc2c(C(F)(F)F)c(-c3ccc(F)c4sc(N)c(C#N)c34)c(F)c3nc(OCC4(CN5CCC(F)CC5)CC4)nc1c23` [Compound 908, 2-amino-4-(4-((R)-1-(4-aminopyrimidin-5-yl)ethyl)-10-fluoro-2-((1-((4-fluoropiperidin-1-yl)methyl)cyclopropyl)methoxy)-8-(trifluoromethyl)-5,6-dihydro-4H-[1,4]oxazepino[5,6,7-de]quinazolin-9-yl)-7-fluorobenzo[b]thiophene-3-carbonitrile], the IC50 in test [1], in test [2], in test [3] and in test [4] was not above 2000 nM in each case.
Turning to `N#Cc1c(N)sc2c(F)ccc(-c3c(Cl)c4c5c(nc(OC[C@@]67CCCN6C[C@H](F)C7)nc5c3F)N(Cc3cccnc3N)C3COCC3CO4)c12` (mixture of isomers) [Compound 868, 2-amino-4-(12-((2-aminopyridin-3-yl)methyl)-6-chloro-4-fluoro-2-(((2R,7aS)-2-fluorotetrahydro-1H-pyrrolizin-7a (5H)-yl)methoxy)-8a,9,11a, 12-tetrahydro-8H, 11H-furo[3′,4′: 6,7][1,5]oxazocino[4,3,2-de]quinazolin-5-yl)-7-fluorobenzo[b]thiophene-3-carbonitrile], the IC50 in test [1], in test [2], in test [3] and in test [4] was not above 2000 nM throughout.
Regarding `CC[S+]([O-])[C@@H]1CN2CCC[C@@]2(COc2nc3c4c(c(Cl)c(-c5ccc(F)c6sc(N)c(C#N)c56)c(F)c4n2)OCCN3[C@H](C)c2cccnc2N)C1` (mixture of isomers) [Compound 780, 2-amino-4-(4-((R)-1-(2-aminopyridin-3-yl)ethyl)-8-chloro-2-(((2S,7aS)-2-(ethylsulfinyl)tetrahydro-1H-pyrrolizin-7a(5H)-yl)methoxy)-10-fluoro-5,6-dihydro-4H-[1,4]oxazepino[5,6,7-de]quinazolin-9-yl)-7-fluorobenzo[b]thiophene-3-carbonitrile], the IC50 in test [1], in test [2], in test [3] and in test [4] was not above 2000 nM throughout.
As for `N#Cc1c(N)sc2cccc(-c3c(Cl)c4c5c(nc(OC[C@@]67CCCN6C[C@H](F)C7)nc5c3F)N([C@@H](c3cccnc3N)C(F)F)CCO4)c12` (single isomer, unassigned) [Compound 802], the IC50 in test [1], in test [2], in test [3] and in test [4] was more than 2000 nM each time.
As for `N#Cc1c(N)sc2c(F)ccc(-c3c(C(F)(F)F)c4c5c(nc(OC[C@@]67CCCN6CC(=C(F)F)C7)nc5c3F)N([C@H](CC3CCOCC3)c3cccnc3N)CCO4)c12` [Compound 781, 2-amino-4-(4-((R)-1-(2-aminopyridin-3-yl)-2-(tetrahydro-2H-pyran-4-yl)ethyl)-2-(((S)-2-(difluoromethylene)tetrahydro-1H-pyrrolizin-7a(5H)-yl)methoxy)-10-fluoro-8-(trifluoromethyl)-5,6-dihydro-4H-[1,4]oxazepino[5,6,7-de]quinazolin-9-yl)-7-fluorobenzo[b]thiophene-3-carbonitrile], the IC50 in test [1], in test [2], in test [3] and in test [4] was not above 2000 nM each time.
In the case of `CON=C1CN2CCC[C@@]2(COc2nc3c4c(c(Cl)c(-c5ccc(F)c6sc(N)c(C#N)c56)c(F)c4n2)OCCN3[C@H](C)c2cccnc2N)C1` (mixture of isomers) [Compound 653, 2-amino-4-(4-((R)-1-(2-aminopyridin-3-yl)ethyl)-8-chloro-10-fluoro-2-(((S)-2-(methoxyimino)tetrahydro-1H-pyrrolizin-7a(5H)-yl)methoxy)-5,6-dihydro-4H-[1,4]oxazepino[5,6,7-de]quinazolin-9-yl)-7-fluorobenzo[b]thiophene-3-carbonitrile], the IC50 in test [1], in test [2], in test [3] and in test [4] was not above 2000 nM throughout.
Take `C[C@H](c1cc(Cl)cnc1N)N1CCOc2c(C(F)(F)F)c(-c3ccc(F)c4sc(N)c(C#N)c34)c(F)c3nc(OCC4(CN5CCC(=CF)CC5)CC4)nc1c23` [Compound 819, 2-amino-4-(4-((R)-1-(2-amino-5-chloropyridin-3-yl)ethyl)-10-fluoro-2-((1-((4-(fluoromethylene)piperidin-1-yl)methyl)cyclopropyl)methoxy)-8-(trifluoromethyl)-5,6-dihydro-4H-[1,4]oxazepino[5,6,7-de]quinazolin-9-yl)-7-fluorobenzo[b]thiophene-3-carbonitrile]: the IC50 in test [1], in test [2], in test [3] and in test [4] was not above 2000 nM each time.
In the case of `C[C@@H]1CN(CC2(COc3nc4c5c(c(C(F)(F)F)c(-c6ccc(F)c7sc(N)c(C#N)c67)c(F)c5n3)OCCN4[C@H](C)c3cccnc3N)CC2)CCO1` (single isomer, unassigned) [Compound 812], the IC50 in test [1], in test [2], in test [3] and in test [4] was not above 2000 nM throughout.

Source of the values: patent publication US12668600B2 (Kumquat Biosciences Inc., priority 2023, dated 2026).
